Calls of active or inactive are those of the source. The calls are words filed in the database; no cut-off is given here.
How the values were obtained:
Kallikrein-5 [1] = molecular target: T1, Kallikrein-5 (Homo sapiens, UniProt Q9Y337); assay: Inhibition of human kallikrein 5 using Abz-KLRSSKQ-EDDnp as substrate by spectrofluorimetric assay
T1 sequence (Q9Y337 whole entry): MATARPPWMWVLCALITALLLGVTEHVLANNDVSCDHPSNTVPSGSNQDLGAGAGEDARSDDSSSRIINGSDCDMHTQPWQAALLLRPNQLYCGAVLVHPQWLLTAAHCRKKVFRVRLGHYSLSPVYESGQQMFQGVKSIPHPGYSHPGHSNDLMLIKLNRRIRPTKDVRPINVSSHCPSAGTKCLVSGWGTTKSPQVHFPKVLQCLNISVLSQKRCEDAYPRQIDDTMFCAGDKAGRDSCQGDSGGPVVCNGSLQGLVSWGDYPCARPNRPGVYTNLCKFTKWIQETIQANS

Kallikrein-5 [2] = molecular target: T1, Kallikrein-5; assay: Inhibition of human kallikrein 5 using Abz-KLRSSKQ-EDDnp as substrate by Lineweaver-Burk plot analysis
Kallikrein-7 [3] = molecular target: T2, Kallikrein-7 (Homo sapiens, UniProt P49862); assay: Inhibition of human kallikrein 7 using Abz-KLYSSKQ-EDDnp as substrate by spectrofluorimetric assay
Target sequence in this assay (P49862 whole entry): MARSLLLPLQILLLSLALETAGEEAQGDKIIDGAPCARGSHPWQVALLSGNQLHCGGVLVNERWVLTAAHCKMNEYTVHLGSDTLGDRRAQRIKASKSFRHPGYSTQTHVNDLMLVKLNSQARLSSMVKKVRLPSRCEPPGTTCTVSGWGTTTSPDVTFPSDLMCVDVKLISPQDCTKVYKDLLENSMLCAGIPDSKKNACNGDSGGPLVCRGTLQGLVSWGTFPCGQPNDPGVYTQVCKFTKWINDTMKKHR

Kallikrein-7 [4] = molecular target: T2, Kallikrein-7; assay: Inhibition of human kallikrein 7 using Abz-KLYSSKQ-EDDnp as substrate by Lineweaver-Burk plot analysis
Target sequence in this assay (P49862 whole entry): as above

Kallikrein-7 [5] = molecular target: T2, Kallikrein-7; assay: Competitive inhibition of human kallikrein 7 using Abz-KLYSSKQ-EDDnp as substrate by Lineweaver-Burk plot analysis
Target sequence in this assay (P49862 30-253 limits assumed): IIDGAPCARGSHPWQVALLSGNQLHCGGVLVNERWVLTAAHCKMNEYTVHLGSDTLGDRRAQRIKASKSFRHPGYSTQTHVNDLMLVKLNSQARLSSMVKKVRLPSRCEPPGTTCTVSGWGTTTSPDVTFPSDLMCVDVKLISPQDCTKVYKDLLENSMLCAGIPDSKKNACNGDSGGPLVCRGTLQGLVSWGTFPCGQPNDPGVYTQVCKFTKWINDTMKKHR

Row | SMILES | IC50 (Kallikrein-5 [1]) [µM] | Ki (Kallikrein-5 [2]) [µM] | IC50 (Kallikrein-7 [3]) [µM] | Ki (Kallikrein-7 [4]) [µM] | inhibition (Kallikrein-7 [5])
1 | COc1cc2c(OC)c3cc(C)oc(=O)c3c(O)c2c(O)c1-c1c(OC)cc2c(OC)c3cc(C)oc(=O)c3c(O)c2c1O | 72.9 | 24.4 | 112 | 12.2 | Active
2 | COc1cc(O)c2c(O)c3c(=O)oc(C)cc3c(OC)c2c1 [PAEPALANTINE] | 367 | 47.5 | 166 | 70.7 | –
3 | COc1cc2cc3c(c(O)c2c(O)c1-c1c(OC)cc2cc4c(c(O)c2c1O)C(=O)O[C@H](C)C4)C(=O)O[C@H](C)C3 [VIOXANTHIN] | 53.7 | 22.9 | 135 | 37.2 | –

— ChEMBL document CHEMBL1833973, “Biological evaluation and docking studies of natural isocoumarins as inhibitors for human kallikrein 5 and 7” (Bioorg Med Chem Lett, 2011)
